Assays:
Type in all cases: cell-based
[1] = test system: RSV A2; test: RSV RT-PCR based assay; conditions: human respiratory syncytial virus; RT-PCR assay; HEp-2 cells; 24 hour compound pre-incubation; RSV A2 at MOI 0.1; 4 days after infection; viral load; read-out: EC50
Description: RT-PCR based assays were performed in HEp-2 cells (ATCC: CCL-23) at a concentration of 20000 cell/well were plated in 96 well plates and incubated overnight. Each of the test compounds were ⅓ serially diluted and dosed to HEp-2 cells in duplicates. The highest final concentration for each compound was 100 uM. After 24 hour compound pre-incubation, RSV A2 (ATCC: VR-1540) at MOI of 0.1 was added. Two wells per compound were set aside as uninfected, untreated cell controls (CC), and four wells per test compound received virus only as a control for virus replication (VC). The assay was stopped 4 days after virus infection and conditioned media was removed for viral RNA isolation. The quantities of the RSV virus were measured by real-time PCR using a set of RSV specific primers and probe. The data was analyzed with Prism software with EC50 defined as drug concentration that reduced the viral load 50% from the viral control (VC).
(§1) Compounds of Formula (I) and Formula (II) are active in the assay as noted in Tables 2 and 3, where ‘A’ indicates an EC50<1 μM, ‘B’ indicates an EC50 of >1 μM and <10 μM, ‘C’ indicates an EC50>10 μM and <100 μM, and ‘D’ indicates an EC50>100 μM.

[2] = test system: RSV Long strain; test: RSV CPE reduction assay; conditions: human respiratory syncytial virus, 144 h; CPE assay; HEp-2 cells infected with RSV Long strain, m.o.i. 0.01; 6 days; CCK-8 readout; read-out: EC50
Description: CPE reduction assays were performed as described by Sidwell and Huffman et al., Appl Microbiol. (1971) 22(5):797-801 with slight modifications. HEp-2 cells (ATCC) at a concentration of 6000 cell/well were infected with RSV Long strain (ATCC) at a multiplicity of infection (m.o.i.) of 0.01, and each of the test compounds were provided to duplicate wells at final concentrations starting from 100 μM using ⅓ stepwise dilutions. For each compound, two wells were set aside as uninfected, untreated cell controls (CC), and two wells per test compound received virus only as a control for virus replication (VC). […] At the end of the incubation, 20 μl of cell counting kit-8 reagent (CCK-8, Dojindo Molecular Technologies, Inc.) were added to each well. After 4 hour incubation, the absorbance was measured in each well according to manufacturer's instruction, and the 50% effective concentration (EC50) was calculated by using regression analysis, based on the mean O.D. at each concentration of compound.
as §1

[3] = test system: Influenza A/WSN/33 virus; test: Influenza antiviral assay (real-time PCR); conditions: A549 cells, 24 hour pre-incubation, 72 hours, read-out: Percent Inhibition

Compound | EC50 [1] [µM] | EC50 [2] [µM] | inhibition at 30 µM [3] [%]
[N-]=[N+]=N[C@]1(CO)O[C@@H](n2cnc3c(=O)[nH]c(N)nc32)[C@H](F)[C@@H]1O [Compound 27, 4′-azido-2′-deoxy-2′-fluoroguanosine] | < 1 | < 1 | 91
[N-]=[N+]=N[C@]1(CO)O[C@@H](n2ccc(N)nc2=O)[C@H](F)[C@@H]1O [Compound 2, 4′-azido-2′-deoxy-2′-fluorocytidine] | < 1 | < 1 | 99.8
[N-]=[N+]=N[C@]1(CO)O[C@@H](n2cnc3c(=O)[nH]c(N)nc32)[C@H](O)[C@@H]1O [Compound 10, 4′-azidoguanosine] | < 1 | < 1 | 83.3
C[C@@]1(n2ccc(N)nc2=O)O[C@@](CO)(N=[N+]=[N-])[C@@H](O)[C@H]1O [Compound 50, 4′-azido-1′-methylcytidine] | > 100 | > 100 | 90.9
